What was measured:
colon adenocarcinoma C51 = experiment: Antitumor efficacy against colon adenocarcinoma C51 grafted in BALB/c mice (T/C, T-C, log cell kill)
Procedure: This efficacy may be quantified, for example, by the log10 cell kill, which is determined according to the following formula:
A product is considered to be active if log10 cell kill is greater than or equal to 0.7. A product is considered to be very active if log10 cell kill is greater than or equal to 2.8.
The combination will manifest therapeutic synergy when the log10 cell kill is greater than the value of the log10 cell kill of the best constituent administered alone at its maximum tolerated dose (by at least 1 log cell kill).
The efficacy of the combinations on solid tumors may be determined experimentally in the following manner:
The animals subjected to the experiment, generally mice, are subcutaneously grafted bilaterally with 30 to 60 mg of a tumor fragment on day 0. The animals are implanted with a murine tumor grafted in the syngenic strain of mice of origin of the tumor, or by a rodent or human tumor xenografted in immunocompromized mice. Some days post tumor implantation, mice are randomized according to their body weight to the different groups of treatments and controls. The animals are observed every day. […] The groups are then weighed once or twice a week until the end of the trial.
The tumors are measured 1 to 5 times a week, depending on the tumor doubling time, until the tumor reaches approximately 2 g, or until the animal dies (if this occurs before the tumor reaches 2 g). The animals are necropsied immediately after euthanasia or death.
Cabazitaxel was weighed for each treatment and dissolved in ethanol. Treatment solutions were prepared first by mixing 1 volume of ethanolic stock solution and 1 volume of polysorbate 80, then by adding 18 volumes of glucose 5% in water. Cabazitaxel was administered intravenously on days 5, 12 (or 13) after tumor implantation.
The tumors of treatment (T) and control (C) groups were measured when the median of control group reached approximately 750 to 1400 mg. The median tumor weight of each group was determined.
Antitumor efficacy was determined by calculating the T/C value in percent: T/C (%)=Median tumor weight of the Treated/control×100
A T/C <10% is considered to indicate high antitumor activity and is the level used by NCI to justify further development (Decision Network-2 level, DN-2).
To better quantify the antitumor activity, another end point, the log cell kill, was used:

[1] = Toxicity (drug death, body weight loss, HNTD) in C51 tumor-bearing BALB/c mice; assay type: in vivo
Text: The animals are observed every day.
Toxicity was declared at dosages inducing≥20% body weight loss or≥10% drug death

[2] = Phase I study: pharmacokinetics of cabazitaxel and cisplatin in patients; settings: cisplatin 75 mg/m^2 followed by cabazitaxel
[3] = cisplatin dose 75 mg/m^2; value given with 'previously reported'; cited from earlier work
[4] = cabazitaxel alone 7.7 mg/kg/inj IV (total 15.4), days 5, 12
[5] = cabazitaxel alone 12.4 mg/kg/inj IV (total 24.8), days 5, 12
[6] = cabazitaxel alone 20.0 mg/kg/inj IV (total 40.0), days 5, 12
[7] = cabazitaxel alone 32.3 mg/kg/inj IV (total 64.6), days 5, 12
[8] = cisplatin alone 2.7 mg/kg/inj IV (total 5.4), days 5, 12

CO[C@H]1C(=O)[C@]2(C)[C@@H](OC)C[C@H]3OC[C@@]3(OC(C)=O)[C@H]2[C@H](OC(=O)c2ccccc2)[C@]2(O)C[C@H](OC(=O)[C@H](O)[C@@H](NC(=O)OC(C)(C)C)c3ccccc3)C(C)=C1C2(C)C [cabazitaxel, 4α-acetoxy-2α-benzoyloxy-5β,20-epoxy-1β-hydroxy-7β, 10β-dimethoxy-9-oxo-11-taxen-13α-yl (2R,3S)-3-tert-butoxycarbonylamino-2-hydroxy-3-phenylpropionate]
Comments (colon adenocarcinoma C51; [4]): Active
T-C in days (750 mg) (colon adenocarcinoma C51; [4]): 11.0 days
T/C in % on day 20 (colon adenocarcinoma C51; [4]): 5%
log10 cell kill gross (colon adenocarcinoma C51; [4]): 1.3
Comments (colon adenocarcinoma C51; [5]): Active
T-C in days (750 mg) (colon adenocarcinoma C51; [5]): 11.7 days
T/C in % on day 20 (colon adenocarcinoma C51; [5]): 3%
log10 cell kill gross (colon adenocarcinoma C51; [5]): 1.4
Comments (colon adenocarcinoma C51; [6]): HNTD active
T-C in days (750 mg) (colon adenocarcinoma C51; [6]): 15.2 days
T/C in % on day 20 (colon adenocarcinoma C51; [6]): 0%
log10 cell kill gross (colon adenocarcinoma C51; cabazitaxel alone 20.0 mg/kg/inj IV (total 40.0), days 5, 12 (HNTD)): 1.8
Drug death [1, 4]: 0/6
% Body weight change at nadir ([1]; cabazitaxel alone 7.7 mg/kg/inj IV (total 15.4), days 5, 12, nadir day 9): −6.8%
Drug death [1, 5]: 0/6
% Body weight change at nadir ([1]; cabazitaxel alone 12.4 mg/kg/inj IV (total 24.8), days 5, 12, nadir day 9): −8.1%
Drug death [1, 6]: 0/6
% Body weight change at nadir ([1]; cabazitaxel alone 20.0 mg/kg/inj IV (total 40.0), days 5, 12, nadir day 19): −14.6%
Comments [1, 7]: Toxic (6/6 DD)
Drug death [1, 7]: 6/6
highest nontoxic dose (HNTD) ([1]; cabazitaxel alone IV, days 5, 12 (total injected dose 40 mg/kg)): 20 mg/kg/inj

N.N.[Cl][Pt][Cl] [cisplatin]
effect of cabazitaxel on the PK of cisplatin (total and free) [2]: did not appear to alter
Comments (colon adenocarcinoma C51; [8]): Active
T-C in days (750 mg) (colon adenocarcinoma C51; [8]): 15.1 days
T/C in % on day 20 (colon adenocarcinoma C51; [8]): 2%
log10 cell kill gross (colon adenocarcinoma C51; [8]): 1.8
T-C in days (750 mg) (colon adenocarcinoma C51; cisplatin alone […] IV (total 8.6), days 5, 12): 22.1 days
AUClast, free platinum [3]: 4170 ng·h/mL
AUClast, total platinum [3]: 45 820 ng.h/mL

Reference: patent US20180153931A1 (Aventis Pharma S.A., priority 2011, published 2018)
